This note sets out measurements from PubChem BioAssay AID1413 (The Scripps Research Institute Molecular Screening Center, 2008).

The source made the active and inactive calls.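 The calls were made as follows: active = CC50, the dose killing half the cells, at or below 10 µM, by curve fit or manual estimate; inactive = CC50 above 10 µM.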

As a reminder, the CC50 is the concentration at which the toxic effect on the cells reaches its halfway point.

The test relates to HeLa viability, CellTiter-Glo ATP luminescence. Description: HeLa cell cytotoxicity, dose response, cytotoxicity control for Wee1 degradation inhibitor project, CellTiter-Glo luminescence (AID 1413). In general terms: Cellular ATP, detected with luciferase, serves as a proxy for viable cell number.
Consider `Cc1ccc2nc(NCc3ccccc3)[nH]c2c1`, for which the CC50 was > 49.8 µM (inactive).
The result for `CCN(CC)c1ccc(/C=N/NC(=O)c2ccco2)cc1` reads > 49.8 µM (inactive).
The result for `COC(=O)C1CCN(C(=O)/C=C/c2ccc(OC)cc2)CC1` reads > 49.8 µM (inactive); that for `O=C1C=CC(O)(c2cc(=O)c3c(O)cc(O)cc3o2)C=C1`, > 49.8 µM (inactive).
The result for `CC(=O)Nc1ccc(/C=N/Nc2nc3ccccc3s2)cc1` reads > 49.8 µM (inactive).
Consider `Cc1cccn2c1nc(=S)n2C(=O)c1ccco1`, for which the CC50 is > 49.8 µM (inactive).
For the compound `COc1ccc(NC(=O)/C(Cl)=C(/Cl)S(=O)Cc2ccc(C)cc2)cn1` (stereo not drawn), the CC50 was 14.5 µM (inactive).
The result for `Cc1cc(Cl)ccc1NC(=S)Nc1ccccn1` reads > 49.8 µM (inactive); that for `COc1cccc(C2=CC(c3cccc(OC)c3OC)n3nnnc3N2)c1` (stereo not drawn), > 49.8 µM (inactive); that for `Cc1ccc(/C=N/NC(=O)c2ccc3c(c2)OCCO3)s1`, > 49.8 µM (inactive).
The result for `O=C(/C=C/c1ccccc1)Nc1ccc(Cl)cn1` reads > 49.8 µM (inactive).
The result for `On1onc2c3cc(-c4ccccc4)nc3ccc21` reads > 49.8 µM (inactive); that for `CCCC1=Nc2cc(C(=O)NCc3ccco3)ccc2Sc2ccccc21`, > 49.8 µM (inactive).
In the case of `O=C(Nc1ccc(Cl)c(Cl)c1)Nc1nccs1`, the CC50 was > 49.8 µM (inactive).
Regarding `Cn1cccc1/C=C1\SC(=Nc2ccccc2)NC1=O`, the CC50 was > 49.8 µM (inactive).
The result for `O=C(COc1ccc(C(=O)c2ccc(F)cc2)cc1)NCc1ccc(F)cc1` reads > 49.8 µM (inactive); that for `CCOC(=O)N1CCN(C(=O)c2cc(-c3ccc(OCC)cc3)nc3ccccc23)CC1`, > 49.8 µM (inactive); that for `O=C(/C=C/c1cccnc1)/C=C/c1cccnc1`, > 49.8 µM (inactive).
The result for `COc1cc(C2=NOC(C(=O)NCc3cccs3)C2)cc(OC)c1OC` (stereo not drawn) reads > 49.8 µM (inactive); that for `O=c1[nH]c2ccccc2nc1/C=C(\O)c1cccs1`, > 49.8 µM (inactive).
Regarding `CCOC(=O)C1=C(c2ccccc2)O/C(=C(/C#N)C(F)(F)F)S1`, the CC50 is 7.17 µM.
`O=C(N=Nc1c(O)[nH]c2ccc(Br)cc12)c1ccccc1-n1cccc1`: the CC50 was > 49.8 µM (inactive).
For the compound `CCOc1cccc(N(C(=O)Cc2cccs2)C(C(=O)NC2CCCCC2)c2cccn2C)c1` (stereo not drawn), the CC50 was > 49.8 µM (inactive).
The result for `CCN(CC)c1ccc(/C=N/NC(=O)c2cnccn2)cc1` reads > 49.8 µM (inactive); that for `Cc1ccnc(NC(=O)CCCOc2cc(=O)n(C)c3ccccc23)c1`, > 49.8 µM (inactive); that for `O=[N+]([O-])c1ccc(Sc2cccc[n+]2[O-])c2nonc12`, 6.76 µM.
Consider `O=S(=O)(C/C(=C/CO)S(=O)(=O)c1ccccc1)c1ccccc1`, for which the CC50 was > 49.8 µM (inactive).
The result for `CCN(CC)S(=O)(=O)c1ccc(C(=O)NCCc2ccccn2)cc1` reads > 49.8 µM (inactive).
In the case of `COc1ccc(/C=N/NC(=O)c2ccc3ccccc3c2)cc1OS(=O)(=O)c1ccc(NC(C)=O)cc1`, the CC50 is > 49.8 µM (inactive).
Turning to `COc1ccc(NC(=O)/C(Cl)=C(/Cl)S(=O)Cc2ccccc2)cn1` (stereo not drawn), the CC50 was > 16.6 µM (inactive).
Turning to `Cc1nc2ccccn2c1-c1csc(Nc2cccc(O)c2)n1`, the CC50 is > 49.8 µM (inactive).
Take `C=CS(=O)(=O)c1ccc(Oc2ccc(S(=O)(=O)C=C)cc2)cc1`: the CC50 is > 49.8 µM (inactive).
The result for `COc1ccccc1-c1ccc(SCc2ccccc2F)nn1` reads > 49.8 µM (inactive); that for `CCCCS(=O)(=O)/C=C\C=C/S(=O)(=O)CCCC`, > 16.6 µM (inactive); that for `COc1cccc(/C=N/NC(=O)c2cc3c(OC)c(OC)ccc3[nH]2)c1OC`, > 49.8 µM (inactive).
The result for `Cc1csc2sc(-c3ccnc(SCC(=O)NCc4ccccc4)n3)c(C)c12` reads > 49.8 µM (inactive).
The result for `COc1ccc(Nc2oc(-c3ccc(OC)cc3)nc2C#N)cc1` reads > 49.8 µM (inactive); that for `Cc1ccc(Nc2cc(C)nn2-c2nc(C)cc(=O)[nH]2)cc1`, > 49.8 µM (inactive).
